Measurements: paper PMC5355811 (Nature Communications, 2017)
Values joined by “and” are separate entries in the source; they are usually repeats but may differ in a detail not shown here. Equal entries are not always repeated. Where two headings read alike, the source gives them in different places.

Experiments:
Type in all cases: cell-based
[1] = test system: Ba/F3 cells of EGFR-del19; experiment: Drug sensitivity screening at 100 nM, Ba/F3 EGFR-del19; details: for viability at 0.1 µM: Mus musculus, BaF3, 72 h, read-out: Relative cell viability (ratio to DMSO control), del19; for Relative cell viability (% of DMSO control) in del19 Ba/F3 cells: 100 nM
Experimental: (§1) After the incubation, cell viability was measured using CellTiter-Glo assay. The relative cell viability was calculated as a ratio of each value to that of the DMSO control.

[2] = test system: Ba/F3 cells of EGFR-T790M/del19; experiment: Drug sensitivity screening at 100 nM, Ba/F3 EGFR-T790M/del19; details: for viability at 0.1 µM: Mus musculus, BaF3, 72 h, read-out: Relative cell viability (ratio to DMSO control), del19/T790M; for Relative cell viability (% of DMSO control): 100 nM
Experimental: as §1

[3] = test system: Ba/F3 cells of EGFR-C797S/T790M/del19; experiment: Drug sensitivity screening at 100 nM, Ba/F3 EGFR-C797S/T790M/del19; details: Mus musculus, BaF3, 72 h, 100 nM inhibitor, 72 h, DMSO = 100; mean of three independent experiments (Fig. 1a data)
Experimental: as §1

[4] = 100 nM inhibitor, 72 h, DMSO = 100, mean of three independent experiments (Fig. 1a data)

Compound | viability at 0.1 µM [1] [%] | viability at 0.1 µM [2] [%] | Relative cell viability (% of DMSO control) in del19 Ba/F3 cells ([1]; 72 h, DMSO = 100, experiment 1) | Relative cell viability (% of DMSO control) in del19 Ba/F3 cells ([1]; 72 h, DMSO = 100, experiment 2) | Relative cell viability (% of DMSO control) in del19 Ba/F3 cells ([1]; 72 h, DMSO = 100, experiment 3) | viability at 0.1 µM [1, 4] [%] | Relative cell viability (% of DMSO control) ([2]; 72 h, DMSO = 100, experiment 1) | Relative cell viability (% of DMSO control) ([2]; 72 h, DMSO = 100, experiment 2) | Relative cell viability (% of DMSO control) ([2]; 72 h, DMSO = 100, experiment 3) | viability at 0.1 µM [2, 4] [%] | viability at 0.1 µM [3] [%] | Relative cell viability (ratio to DMSO control), del19 [1, 4] | Relative cell viability (ratio to DMSO control), del19/T790M [2, 4]
C[C@]12O[C@H](C[C@]1(O)CO)n1c3ccccc3c3c4c(c5c6ccccc6n2c5c31)CNC4=O [CEP701] | 2.57 | 7.99 |  |  |  |  |  |  |  |  |  |  | 
CO[C@H]1C[C@@H]2CC[C@@H](C)[C@@](O)(O2)C(=O)C(=O)N2CCCC[C@H]2C(=O)O[C@H]([C@H](C)C[C@@H]2CC[C@@H](O)[C@H](OC)C2)CC(=O)[C@H](C)/C=C(\C)[C@@H](O)[C@@H](OC)C(=O)[C@H](C)C[C@H](C)/C=C/C=C/C=C/1C [Rapamycin, rapamycin] |  |  | 26.4621 | 39.8271 | 36.4731 | 34.3 | 30.0228 | 36.7261 | 31.8573 | 32.9 | 27.6 |  | 
Nc1ncnc2c1c(-c1cccc(OCc3ccccc3)c1)cn2[C@H]1C[C@@H](CN2CCC2)C1 [AEW541] |  |  | 86.142 | 111.013 | 118.474 | 105 |  |  |  | 102 | 132 |  | 
CO[C@H]1C[C@@H]2CC[C@@H](C)[C@@](O)(O2)C(=O)C(=O)N2CCCC[C@H]2C(=O)O[C@H]([C@H](C)C[C@@H]2CC[C@@H](OCCO)[C@H](OC)C2)CC(=O)[C@H](C)/C=C(\C)[C@@H](O)[C@@H](OC)C(=O)[C@H](C)C[C@H](C)/C=C/C=C/C=C/1C [Everolimus, everolimus] |  |  | 25.026 | 29.0998 | 35.5918 | 29.9 | 31.3636 | 39.0956 | 30.3952 | 33.6 | 28 |  | 
CCc1cc2c(cc1N1CCC(N3CCOCC3)CC1)C(C)(C)c1[nH]c3cc(C#N)ccc3c1C2=O [Alectinib, alectinib] |  |  | 98.9355 | 105.786 | 113.209 | 106 | 98.2015 | 127.038 | 121.189 | 115 | 146 |  | 
Cc1ccc(NC(=O)c2ccc(CN3CCN(C)CC3)cc2)cc1Nc1nccc(-c2cccnc2)n1 [Imatinib, imatinib] |  |  |  |  |  |  |  |  |  |  | 129 |  | 
COc1cc(N2CCC(N3CCN(C)CC3)CC2)ccc1Nc1ncc(Cl)c(Nc2ccccc2S(=O)(=O)C(C)C)n1 [TAE684] |  |  |  |  |  | 105 |  |  |  | 98.1 | 110 |  | 
COc1cc2c(Nc3ccc(Br)cc3F)ncnc2cc1OCC1CCN(C)CC1 [Vandetanib, vandetanib] |  |  | 1.287 | 1.585 | 1.984 | 1.62 | 95.2444 | 114.653 | 98.1331 | 103 | 130 |  | 
CS(=O)(=O)CCNCc1ccc(-c2ccc3ncnc(Nc4ccc(OCc5cccc(F)c5)c(Cl)c4)c3c2)o1 [Lapatinib, lapatinib] | 128 | 102 |  |  |  |  |  |  |  |  |  |  | 
COC(=O)c1ccc2c(c1)NC(=O)/C2=C(\Nc1ccc(N(C)C(=O)CN2CCN(C)CC2)cc1)c1ccccc1 [BIBF1120] |  |  | 91.4241 | 97.5116 | 102.157 | 97 |  |  |  | 91.1 | 108 |  | 
O=C(C(c1ccccc1)c1ccccc1)N1CCN(CC(O)COc2cccc3ncccc23)CC1 (stereo not shown) [MS209] |  |  | 97.9213 | 113.609 | 104.789 |  | 106.534 | 123.336 | 98.5141 |  |  | 105.44 | 109.461
COc1cc2c(Oc3ccc(NC(=O)C4(C(=O)Nc5ccc(F)cc5)CC4)cc3F)ccnc2cc1OCCCN1CCOCC1 [Foretinib, foretinib] |  |  | 89.6065 | 99.5833 | 99.8956 | 96.4 | 105.61 | 122.653 | 104.986 | 111 | 135 |  | 
Cc1nc2ccc(-n3ncc(C(=O)c4cc5ccccc5[nH]4)c3N)cc2[nH]1 [CH5183284] |  |  | 100.01 | 123.157 | 110.518 |  | 87.4669 | 110.946 | 103.872 |  |  | 111.23 and 111.228 | 100.76 and 100.762
CCCS(=O)(=O)Nc1ccc(F)c(C(=O)c2c[nH]c3ncc(-c4ccc(Cl)cc4)cc23)c1F [Vemurafenib, vemurafenib] |  |  | 102.039 | 116.573 | 106.065 | 108 | 92.0888 | 107.966 | 104.772 | 102 | 96.8 |  | 
COc1cc2nccc(Oc3ccc(NC(=O)C4(C(=O)Nc5ccc(F)cc5)CC4)cc3)c2cc1OC [XL184] |  |  | 97.6803 | 120.752 | 111.655 | 110 | 91.4569 | 111.038 | 110.02 | 104 | 137 |  | 
Cn1cnc2c(F)c(Nc3ccc(Br)cc3Cl)c(C(=O)NOCCO)cc21 [AZD6244] |  |  | 44.8792 | 57.317 | 50.3776 | 50.9 | 105.003 | 111.809 | 110.93 | 109 | 134 |  | 
COc1cc2nccc(Oc3ccc(NC(=O)NC4CC4)c(Cl)c3)c2cc1C(N)=O [E7080] |  |  | 87.8792 | 107.525 | 116.989 |  | 107.332 | 130.309 | 117.831 |  |  | 104.13 and 104.131 | 118.49 and 118.491
CC(=O)Nc1cccc(-n2c(=O)n(C3CC3)c(=O)c3c(Nc4ccc(I)cc4F)n(C)c(=O)c(C)c32)c1 [Trametinib, trametinib] |  |  | 0.7444 | 0.954 | 0.9176 | 0.872 | 11.0855 | 11.5677 | 12.1404 | 11.6 | 44.2 |  | 
Cc1[nH]c(/C=C2\C(=O)Nc3ccc(S(=O)(=O)Cc4c(Cl)cccc4Cl)cc32)c(C)c1C(=O)N1CCC[C@@H]1CN1CCCC1 [PHA665752] |  |  | 109.731 | 119.895 | 113.452 | 114 |  |  |  | 110 | 136 |  | 
C=CCNC1=C2C[C@@H](C)C[C@H](OC)[C@H](O)[C@@H](C)/C=C(\C)[C@H](OC(N)=O)[C@@H](OC)/C=C\C=C(/C)C(=O)NC(=CC1=O)C2=O [17-AAG] |  |  | 47.4299 | 59.7934 | 55.225 |  | 65.6049 | 64.9663 | 61.0089 |  |  | 54.15 and 54.1494 | 63.86
